A word on the IC50: it is the concentration needed to halve the response being measured. A high value points to a need for much substance.

Type in all cases: functional, cell-based
For test [1], the system named is L1210. The test can be described thus: Cytotoxicity against mouse L1210 cells by MTT assay. (In general: Tetrazolium dyes change colour on reduction, which living cells bring about.)
Test [2] has as its system KB. Description: Cytotoxicity against human KB cells by MTT assay.
In test [3] the test system is P388. The test can be described thus: Cytotoxicity against mouse P388 cells by MTT assay.

Molecules are shown by their SMILES. Values after ≈ are worked out from the molar mass of the structure shown. Bounds are passed on as bounds.

For the molecule `CC1=C(O)C(=O)C=C2C1=CC=C1[C@@]2(C)CC[C@@]2(C)[C@@H]3C[C@@H](C)C(=O)C[C@]3(C)CC[C@]12C` [TINGENONE], the IC50 in test [1] worked out at 0.14 µg/mL (≈ 0.333 µM); in test [2], 0.28 µg/mL (≈ 0.666 µM); in test [3], 0.041 µg/mL (≈ 0.0975 µM).

Regarding `COc1c(O)cc2c(c1C)C(=O)C=C1[C@@]2(C)CC[C@]2(C)[C@@H]3C[C@@H](C)C(=O)C[C@]3(C)CC[C@]12C`, the half-maximal inhibitory concentration (IC50) in test [1] was above 100 µg/mL; in test [2] it was 11 µg/mL (≈ 24.4 µM); in test [3], above 100 µg/mL.

`COC(=O)[C@]1(C)CC[C@]2(C)CC[C@]3(C)C4=CC(=O)c5c(cc(O)c(O)c5C)[C@]4(C)CC[C@@]3(C)[C@@H]2C1`: the figures for the half-inhibitory concentration (IC50) in test [1], in test [2] and in test [3] were 2.8 µg/mL (≈ 5.83 µM), 2.8 µg/mL (≈ 5.83 µM) and 1.5 µg/mL (≈ 3.12 µM), respectively.

As to `Cc1c(O)c(O)cc2c1C(=O)C=C1[C@@]2(C)CC[C@@]2(C)[C@@H]3C[C@@H](C)C(=O)C[C@]3(C)CC[C@]12C` [6-OXOTINGENOL], the half-inhibitory concentration (IC50) in test [1] amounted to 6 µg/mL (≈ 13.7 µM); in test [2], 30 µg/mL (≈ 68.7 µM); in test [3] it was 2.6 µg/mL (≈ 5.96 µM).

As to `COC(=O)[C@]1(C)CC[C@]2(C)CC[C@]3(C)C4=CC=C5C(=CC(=O)C(O)=C5C)[C@]4(C)CC[C@@]3(C)[C@@H]2C1` [PRISTIMERIN], the IC50 in test [1] amounted to 0.36 µg/mL (≈ 0.775 µM); in test [2], 0.55 µg/mL (≈ 1.18 µM); in test [3], 0.12 µg/mL (≈ 0.258 µM).

In turn, `COc1c(O)cc2c(c1CO)C(=O)C=C1[C@@]2(C)CC[C@]2(C)[C@@H]3C[C@@H](C)C(=O)[C@@H](O)[C@]3(C)CC[C@]12C` gave a 50% inhibitory concentration (IC50) in test [3] of 4.3 µg/mL (≈ 8.91 µM).

For the molecule `CC1=C(O)C(=O)C=C2C1=CC=C1[C@@]2(C)CC[C@@]2(C)[C@@H]3C[C@@H](C)C(=O)[C@@H](O)[C@]3(C)CC[C@]12C` [TINGENIN B], the IC50 in test [3] worked out at 0.012 µg/mL (≈ 0.0275 µM).

The record behind these values is ChEMBL document CHEMBL1150074, “Cytotoxic aromatic triterpenes from Maytenus ilicifolia and Maytenus chuchuhuasca” (J Nat Prod, 1994).
